Test results published in US20240002809A1, “FRACTAL CUES SUPPORT HIERARCHICAL MATURATION OF CELLS VIA CURVATURE-INDUCED PATTERNING” (The Governing Council of the University of Toronto, priority 2022, published 2024).

How the values were obtained:
Type in all cases: cell-based
[1] = test system: Mosaic cells cultured on HF scaffolds; experiment: Mosaic assay Adriamycin dose test (fractal dimension of cell morphology); details: 0.5 and 1 μg/mL ADR; only with Mosaic cells cultured on HF scaffolds (not NT); FIG. 6e, 6f
Source text: To develop the mosaic assay, populations of fluorescent cells were mixed with optically silent cells and monitored for over 14 days in the mouse cell line, and over 5 days in the human cell line. For long-term live cell labeling, adenovirus transduction of eGFP (Vector Biolabs, #1060) was utilized at an MOI of 1000 in the mouse podocyte cell line, and MOI of 10 in the human podocyte cell line. Cells were transduced one day after seeding and attachment, when cultures were 75% confluent. Virus handling protocols were used, including wearing additional disposable PPE (lab coat, shoe covers, elbow-length and double gloves, and face mask). […]
The next day, virus was removed and puromycin was applied at 8 μg/mL to select fluorescent cells for 48 hours. […] The mosaic assay was assessed using the Zeiss […] super resolution confocal microscope to allow sufficient resolution to see interdigitating foot processes. […]
Images of single fluorescent cells from the mosaic assay (used in topography, model virus, Adriamycin, and patient serum experiments) were first processed using Zeiss's ZenDesk software to facilitate delineation of whole single cell morphology as follows: the FITC channel was adjusted by setting gamma to 2.5 and adjusting the white point to 30. […] The sequence was recorded as a macro to facilitate automation and thus performed blindly and equivalently to all sample images. […]

[2] = test system: human podocyte cell line on HF substrates; experiment: YAP inhibition study, Mosaic assay fractal dimension of whole cell morphology; details: dose of 1 μM, in comparison to the inhibitor-free control, FIG. 13e
Protocol: Mosaic Assay: Mosaic Podo/Tert256 human podocytes (a mixture of GFP-labelled cells and non-fluorescent cells at a ratio of 1:11) were cultured and seeded in the same way as regular human podocytes as described above. At the study endpoint, cells were fixed with PFA, stained with rhodamine-wheat germ agglutinin (WGA), and mounted with DAPI-containing mounting media as described above. Samples were imaged via confocal microscopy using a Zeiss LSM 880 Super Resolution Confocal microscope to allow sufficient resolution to visualize interdigitated morphology. Z-stacked images spanning the entire section with visible signals were taken for each sample. The images were first processed using Zeiss's ZenDesk software to increase the contrast of GFP-positive cells' morphology as follows: the FITC channel was adjusted by setting gamma to 2.5 and adjusting the white point to 30. The DAPI channel's white point was adjusted to 80. In Photoshop or Fiji, the magic wand tool was used to select single fluorescent cells, create binary masks, and export binary images of single cells. Single cells were verified by overlaying nuclei with the cell images to ensure each cell only contained one nucleus. Binary images were then outlined in Fiji, and fractal analysis was performed using the FracLac plugin where the standard box-counting algorithm was used, with the background locked to white. […]

[3] = test system: human podocyte cell line on HF substrates; experiment: Lactate dehydrogenase (LDH) release assay of Mosaic assay cells; details: dose of 1 μM, FIG. 13d
Protocol: YAP Inhibition Study: HF and NT scaffolds were prepared as described above. Mosaic human podocytes were seeded on top of the scaffolds at a concentration of 50,000 cells/cm^2 (100,000 cells per scaffold). […] Samples were fixed on day 5. Media was collected and lactate dehydrogenase assay (LDH) assay (Cayman) was performed according to manufacturer's protocol to validate cell viability. Mosaic assay imaging and analysis were performed as described above.

| Compound | injury response: fractal dimension of cell morphology [1] | Df of podocyte morphology [2] | cell viability (LDH release) [3] |
| --- | --- | --- | --- |
| COc1cccc2c1C(=O)c1c(O)c3c(c(O)c1C2=O)C[C@@](O)(C(=O)CO)C[C@@H]3O[C@H]1C[C@H](N)[C@H](O)[C@H](C)O1 [Adriamycin, doxorubicin] | reduced fractal dimension of cell morphology | – | – |
| Verteporfin | – | decreased significantly | did not show any significant deterioration of cell viability |
